Laboratory results taken from patent US9630977B2, “Cephalosporin derivatives and pharmaceutical compositions thereof” (Legochem Biosciences, Inc., priority 2011, dated 2017).
Converted amounts (≈) assume the structure as drawn.

test system: P. aeruginosa 37; assay: In vitro antibacterial activity test (broth microdilution); assay type: cell-based; conditions: Pseudomonas aeruginosa, 37, P. aeruginosa 37; read-out: MIC90
Experimental: (§1) To evaluate antibacterial activity of each of the compounds of Examples 1 to 68, in vitro antibacterial activity test was performed.
(§2) The in vitro antibacterial activity was evaluated by measuring MIC90 (ug/mL) of each of the compounds of Examples 1 to 68, which is defined as the lowest concentration of an antibiotic that will inhibit the visible growth of 90% of microorganisms after incubation as compared with a control group to which the antibiotic is not treated. MIC90 values were measured by the broth microdilution method developed by the Clinical and Laboratory Standards Institute (CLSI) (see CLSI M7-A5, Methods for Dilution Antimicrobial Susceptibility Test for Bacteria that Grow Aerobically-Fifth Edition (2000): CLSI, Villanova, Pa.).
(§3) In vitro antibacterial activity was measured with respect to the following 19 clinical isolates: M. catarrhalis; P. aeruginosa (5 strains); K. pneumoniae (6 strains); A. baumannii (3 strains); E. coli (2 strains); A. calcoaceticus; and E. cloacae.
(§4) Test compounds each (the cephalosporin derivative compounds prepared in Examples 1 to 68) were dissolved in DMSO at the concentration of 10,240 ug/mL, were diluted by two fold with DMSO, and then were diluted by twenty fold with sterilized distilled water. The final concentration in the antibacterial activity test was in the range of […] to 128 ug/mL, and the final concentration of DMSO used as an adjuvant was 2.5% (V/V).

How did the MIC90 turn out when CNc1nc[n+](CC2=C(C(=O)[O-])N3C(=O)[C@@H](NC(=O)/C(=N\OC(C)(C)C(=O)O)c4csc(N)n4)C3SC2)cc1N (stereo partly drawn) [Compound 39] was run?
Its MIC90 is 128 µg/mL (≈ 216 µM).

Which MIC90 does the source give for CC(C)(O/N=C(\C(=O)N[C@@H]1C(=O)N2C(C(=O)[O-])=C(C[n+]3cnc(N)c(N)c3)CSC12)c1csc(N)n1)C(=O)O (stereo partly drawn) [Compound 36] here?
Its MIC90 is greater than 128 µg/mL.

test system: E. coli β4; assay: as above; assay type: cell-based; conditions: Escherichia coli, read-out: MIC90
Experimental: as §1, §2, §3, §4

CNc1nc[n+](CC2=C(C(=O)[O-])N3C(=O)[C@@H](NC(=O)/C(=N\OC(C)(C)C(=O)O)c4csc(N)n4)C3SC2)cc1N (stereo partly drawn) [Compound 39] was tested. Which MIC90 did it give?
The MIC90 was 16 µg/mL (≈ 27 µM).

With CC(C)(O/N=C(\C(=O)N[C@@H]1C(=O)N2C(C(=O)[O-])=C(C[n+]3cnc(N)c(N)c3)CSC12)c1csc(N)n1)C(=O)O (stereo partly drawn) [Compound 36] as the compound, how does the MIC90 read?
The MIC90 was 16 µg/mL (≈ 27.7 µM).

test system: E. coli AG100; assay: as above; assay type: cell-based; conditions: Escherichia coli, AG100, E. coli AG100; read-out: MIC90
Experimental: as §1, §2, §3, §4

Which MIC90 does the source give for CNc1nc[n+](CC2=C(C(=O)[O-])N3C(=O)[C@@H](NC(=O)/C(=N\OC(C)(C)C(=O)O)c4csc(N)n4)C3SC2)cc1N (stereo partly drawn) [Compound 39] here?
Its MIC90 is 1 µg/mL (≈ 1.69 µM).

For CC(C)(O/N=C(\C(=O)N[C@@H]1C(=O)N2C(C(=O)[O-])=C(C[n+]3cnc(N)c(N)c3)CSC12)c1csc(N)n1)C(=O)O (stereo partly drawn) [Compound 36], which MIC90 is on record?
The MIC90 was 0.5 µg/mL (≈ 0.866 µM).

test system: P. aeruginosa 43; assay: as above; assay type: cell-based; conditions: Pseudomonas aeruginosa; P. aeruginosa 43; read-out: MIC90
Experimental: as §1, §2, §3, §4

For CNc1nc[n+](CC2=C(C(=O)[O-])N3C(=O)[C@@H](NC(=O)/C(=N\OC(C)(C)C(=O)O)c4csc(N)n4)C3SC2)cc1N (stereo partly drawn) [Compound 39], which MIC90 is on record?
Its MIC90 is 4 µg/mL (≈ 6.76 µM).

test system: E. cloacae β19; assay: as above; assay type: cell-based; conditions: Enterobacter cloacae, read-out: MIC90
Experimental: as §1, §2, §3, §4

Which MIC90 does the source give for CNc1nc[n+](CC2=C(C(=O)[O-])N3C(=O)[C@@H](NC(=O)/C(=N\OC(C)(C)C(=O)O)c4csc(N)n4)C3SC2)cc1N (stereo partly drawn) [Compound 39] here?
Its MIC90 is 128 µg/mL (≈ 216 µM).

Which MIC90 does the source give for CC(C)(O/N=C(\C(=O)N[C@@H]1C(=O)N2C(C(=O)[O-])=C(C[n+]3cnc(N)c(N)c3)CSC12)c1csc(N)n1)C(=O)O (stereo partly drawn) [Compound 36] here?
The MIC90 was greater than 128 µg/mL.

test system: A. baumannii 46; assay: as above; assay type: cell-based; conditions: Acinetobacter baumannii; A. baumannii 46; read-out: MIC90
Experimental: as §1, §2, §3, §4

CNc1nc[n+](CC2=C(C(=O)[O-])N3C(=O)[C@@H](NC(=O)/C(=N\OC(C)(C)C(=O)O)c4csc(N)n4)C3SC2)cc1N (stereo partly drawn) [Compound 39] was tested. Which MIC90 did it give?
The MIC90 was 8 µg/mL (≈ 13.5 µM).

How did the MIC90 turn out when CC(C)(O/N=C(\C(=O)N[C@@H]1C(=O)N2C(C(=O)[O-])=C(C[n+]3cnc(N)c(N)c3)CSC12)c1csc(N)n1)C(=O)O (stereo partly drawn) [Compound 36] was run?
The MIC90 was 64 µg/mL (≈ 111 µM).

test system: P. aeruginosa 6065Y; assay: as above; assay type: cell-based; conditions: Pseudomonas aeruginosa, read-out: MIC90
Experimental: as §1, §2, §3, §4

For CNc1nc[n+](CC2=C(C(=O)[O-])N3C(=O)[C@@H](NC(=O)/C(=N\OC(C)(C)C(=O)O)c4csc(N)n4)C3SC2)cc1N (stereo partly drawn) [Compound 39], which MIC90 is on record?
The MIC90 was 128 µg/mL (≈ 216 µM).

With CC(C)(O/N=C(\C(=O)N[C@@H]1C(=O)N2C(C(=O)[O-])=C(C[n+]3cnc(N)c(N)c3)CSC12)c1csc(N)n1)C(=O)O (stereo partly drawn) [Compound 36] as the compound, how does the MIC90 read?
Its MIC90 is 64 µg/mL (≈ 111 µM).

test system: K. pneumoniae β14; assay: as above; assay type: cell-based; conditions: Klebsiella pneumoniae, read-out: MIC90
Experimental: as §1, §2, §3, §4

How did the MIC90 turn out when CNc1nc[n+](CC2=C(C(=O)[O-])N3C(=O)[C@@H](NC(=O)/C(=N\OC(C)(C)C(=O)O)c4csc(N)n4)C3SC2)cc1N (stereo partly drawn) [Compound 39] was run?
The MIC90 was 8 µg/mL (≈ 13.5 µM).

CC(C)(O/N=C(\C(=O)N[C@@H]1C(=O)N2C(C(=O)[O-])=C(C[n+]3cnc(N)c(N)c3)CSC12)c1csc(N)n1)C(=O)O (stereo partly drawn) [Compound 36] was tested. Which MIC90 did it give?
Its MIC90 is 16 µg/mL (≈ 27.7 µM).

test system: P. aeruginosa 1912E; assay: as above; assay type: cell-based; conditions: Pseudomonas aeruginosa, 1912E, read-out: MIC90
Experimental: as §1, §2, §3, §4

CNc1nc[n+](CC2=C(C(=O)[O-])N3C(=O)[C@@H](NC(=O)/C(=N\OC(C)(C)C(=O)O)c4csc(N)n4)C3SC2)cc1N (stereo partly drawn) [Compound 39] was tested. Which MIC90 did it give?
The MIC90 was 8 µg/mL (≈ 13.5 µM).

How did the MIC90 turn out when CC(C)(O/N=C(\C(=O)N[C@@H]1C(=O)N2C(C(=O)[O-])=C(C[n+]3cnc(N)c(N)c3)CSC12)c1csc(N)n1)C(=O)O (stereo partly drawn) [Compound 36] was run?
The MIC90 was 8 µg/mL (≈ 13.9 µM).

test system: P. aeruginosa 40; assay: as above; assay type: cell-based; conditions: Pseudomonas aeruginosa, 40, P. aeruginosa 40; read-out: MIC90
Experimental: as §1, §2, §3, §4

With CNc1nc[n+](CC2=C(C(=O)[O-])N3C(=O)[C@@H](NC(=O)/C(=N\OC(C)(C)C(=O)O)c4csc(N)n4)C3SC2)cc1N (stereo partly drawn) [Compound 39] as the compound, how does the MIC90 read?
Its MIC90 is 32 µg/mL (≈ 54.1 µM).

With CC(C)(O/N=C(\C(=O)N[C@@H]1C(=O)N2C(C(=O)[O-])=C(C[n+]3cnc(N)c(N)c3)CSC12)c1csc(N)n1)C(=O)O (stereo partly drawn) [Compound 36] as the compound, how does the MIC90 read?
The MIC90 was 16 µg/mL (≈ 27.7 µM).

test system: A. calcoaceticus ATCC15473; assay: as above; assay type: cell-based; conditions: Acinetobacter calcoaceticus; A. calcoaceticus ATCC15473; read-out: MIC90
Experimental: as §1, §2, §3, §4

Which MIC90 does the source give for CNc1nc[n+](CC2=C(C(=O)[O-])N3C(=O)[C@@H](NC(=O)/C(=N\OC(C)(C)C(=O)O)c4csc(N)n4)C3SC2)cc1N (stereo partly drawn) [Compound 39] here?
The MIC90 was 8 µg/mL (≈ 13.5 µM).

Which MIC90 does the source give for CC(C)(O/N=C(\C(=O)N[C@@H]1C(=O)N2C(C(=O)[O-])=C(C[n+]3cnc(N)c(N)c3)CSC12)c1csc(N)n1)C(=O)O (stereo partly drawn) [Compound 36] here?
The MIC90 was 2 µg/mL (≈ 3.46 µM).

test system: K. pneumoniae 2011E; assay: as above; assay type: cell-based; conditions: Klebsiella pneumoniae, 2011E, K. pneumoniae 2011E; read-out: MIC90
Experimental: as §1, §2, §3, §4

With CNc1nc[n+](CC2=C(C(=O)[O-])N3C(=O)[C@@H](NC(=O)/C(=N\OC(C)(C)C(=O)O)c4csc(N)n4)C3SC2)cc1N (stereo partly drawn) [Compound 39] as the compound, how does the MIC90 read?
The MIC90 was 1 µg/mL (≈ 1.69 µM).

For CC(C)(O/N=C(\C(=O)N[C@@H]1C(=O)N2C(C(=O)[O-])=C(C[n+]3cnc(N)c(N)c3)CSC12)c1csc(N)n1)C(=O)O (stereo partly drawn) [Compound 36], which MIC90 is on record?
Its MIC90 is 0.5 µg/mL (≈ 0.866 µM).

test system: A. baumannii 49; assay: as above; assay type: cell-based; conditions: Acinetobacter baumannii; A. baumannii 49; read-out: MIC90
Experimental: as §1, §2, §3, §4

CNc1nc[n+](CC2=C(C(=O)[O-])N3C(=O)[C@@H](NC(=O)/C(=N\OC(C)(C)C(=O)O)c4csc(N)n4)C3SC2)cc1N (stereo partly drawn) [Compound 39] was tested. Which MIC90 did it give?
Its MIC90 is greater than 128 µg/mL.

CC(C)(O/N=C(\C(=O)N[C@@H]1C(=O)N2C(C(=O)[O-])=C(C[n+]3cnc(N)c(N)c3)CSC12)c1csc(N)n1)C(=O)O (stereo partly drawn) [Compound 36] was tested. Which MIC90 did it give?
The MIC90 was greater than 128 µg/mL.

test system: A. baumannii 52; assay: as above; assay type: cell-based; conditions: Acinetobacter baumannii; A. baumannii 52; read-out: MIC90
Experimental: as §1, §2, §3, §4

For CNc1nc[n+](CC2=C(C(=O)[O-])N3C(=O)[C@@H](NC(=O)/C(=N\OC(C)(C)C(=O)O)c4csc(N)n4)C3SC2)cc1N (stereo partly drawn) [Compound 39], which MIC90 is on record?
Its MIC90 is greater than 128 µg/mL.

How did the MIC90 turn out when CC(C)(O/N=C(\C(=O)N[C@@H]1C(=O)N2C(C(=O)[O-])=C(C[n+]3cnc(N)c(N)c3)CSC12)c1csc(N)n1)C(=O)O (stereo partly drawn) [Compound 36] was run?
Its MIC90 is greater than 128 µg/mL.
